Experimental data as given in ChEMBL document CHEMBL4325935, “Molecular Basis for the Selective Inhibition of Histone Deacetylase 6 by a Mercaptoacetamide Inhibitor” (ACS Med Chem Lett, 2018).

Columns and labels:
[1] = biological target: T1, Histone deacetylase 8 (Homo sapiens, UniProt Q9BY41); assay: Inhibition of full length human N-terminal FLAG-tagged HDAC8 (1 to 377 residues) expressed in HEK293 cells preincubated for 15 mins followed by Boc-[trifluoroacetyl-Lys]-AMC substrate addition measured after 30 mins by fluorimetric method; assay type: cell-based
T1 sequence (Q9BY41 whole entry): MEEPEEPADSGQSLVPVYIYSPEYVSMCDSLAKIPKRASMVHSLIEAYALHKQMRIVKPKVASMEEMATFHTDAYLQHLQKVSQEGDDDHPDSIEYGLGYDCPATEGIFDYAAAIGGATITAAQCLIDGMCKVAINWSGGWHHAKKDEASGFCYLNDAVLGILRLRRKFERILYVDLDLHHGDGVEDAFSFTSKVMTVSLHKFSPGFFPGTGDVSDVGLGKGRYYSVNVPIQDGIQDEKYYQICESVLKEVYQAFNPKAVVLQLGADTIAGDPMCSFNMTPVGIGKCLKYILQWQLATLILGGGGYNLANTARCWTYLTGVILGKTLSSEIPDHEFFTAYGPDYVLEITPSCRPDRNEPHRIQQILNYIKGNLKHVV

[2] = biological target: T2, Protein deacetylase HDAC6 (Homo sapiens, UniProt Q9UBN7); assay: Inhibition of full length human N-terminal FLAG-tagged HDAC6 (1 to 1215 residues) expressed in HEK293 cells preincubated for 15 mins followed by acetyl-Gly-Ala-[acetyl-Lys]-AMC substrate addition measured after 30 mins by fluorimetric method; assay type: cell-based
T2 sequence (Q9UBN7 whole entry): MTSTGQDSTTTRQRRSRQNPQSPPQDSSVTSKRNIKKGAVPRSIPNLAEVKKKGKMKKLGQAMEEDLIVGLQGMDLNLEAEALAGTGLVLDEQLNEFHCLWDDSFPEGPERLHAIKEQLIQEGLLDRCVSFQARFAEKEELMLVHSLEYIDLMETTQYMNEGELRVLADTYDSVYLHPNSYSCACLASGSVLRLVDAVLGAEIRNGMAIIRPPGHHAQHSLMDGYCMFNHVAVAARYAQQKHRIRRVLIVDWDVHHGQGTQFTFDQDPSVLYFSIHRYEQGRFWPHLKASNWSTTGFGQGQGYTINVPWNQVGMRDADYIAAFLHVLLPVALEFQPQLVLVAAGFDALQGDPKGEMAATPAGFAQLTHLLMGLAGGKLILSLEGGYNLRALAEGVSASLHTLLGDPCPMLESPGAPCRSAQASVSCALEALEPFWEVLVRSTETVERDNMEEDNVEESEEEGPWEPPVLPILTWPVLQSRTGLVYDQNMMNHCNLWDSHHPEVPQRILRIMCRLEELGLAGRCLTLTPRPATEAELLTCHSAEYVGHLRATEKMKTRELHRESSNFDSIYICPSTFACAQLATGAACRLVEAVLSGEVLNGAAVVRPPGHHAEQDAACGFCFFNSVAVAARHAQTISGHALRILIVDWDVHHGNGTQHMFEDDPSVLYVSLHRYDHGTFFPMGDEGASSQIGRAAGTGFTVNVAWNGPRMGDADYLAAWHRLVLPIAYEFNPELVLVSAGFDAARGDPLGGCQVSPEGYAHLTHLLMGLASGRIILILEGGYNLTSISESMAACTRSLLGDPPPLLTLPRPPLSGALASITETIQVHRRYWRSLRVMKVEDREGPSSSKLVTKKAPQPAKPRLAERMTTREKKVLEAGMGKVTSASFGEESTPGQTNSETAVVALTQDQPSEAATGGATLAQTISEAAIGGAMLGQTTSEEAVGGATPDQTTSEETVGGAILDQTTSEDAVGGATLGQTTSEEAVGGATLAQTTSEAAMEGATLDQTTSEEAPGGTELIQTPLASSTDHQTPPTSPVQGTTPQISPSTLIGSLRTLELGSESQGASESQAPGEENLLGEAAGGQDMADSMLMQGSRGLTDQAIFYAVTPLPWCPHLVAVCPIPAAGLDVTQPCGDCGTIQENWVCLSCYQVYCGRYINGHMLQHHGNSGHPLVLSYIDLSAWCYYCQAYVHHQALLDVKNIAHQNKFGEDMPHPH

IC50 [1]: 12 µM
IC50 [2]: 0.05 µM
SMILES: O=C(CS)NCCCCCn1ccc2cc(Cl)c(Cl)cc21
